Test results taken from patent publication US5916785A, “Process of oxidizing alcohols or carboxylic acids with alcohol/aldehyde dehydrogenase from gluconobacter” (Roche Vitamins Inc., priority 1992, dated 1999).

Tests used:
AADH [1] = assay: Measurement of the Km (Michaelis constant) values, DCIP/PMS enzyme assay; format: biochemical, Gluconobacter oxydans DSM No. 4025; conditions: mixture of DCIP and PMS as electron acceptors; 25° C., pH 8.0; read-out: apparent Michaelis constant (Km)
AADH [2] = assay: Effect of metal ions on the enzyme activity; format: biochemical, Gluconobacter oxydans DSM No. 4025; conditions: standard DCIP/PMS assay
Source text: Using the assay procedure described under section 1), the effect of various metal ions on the enzyme activity was examined. […] The others affected the enzyme activity strongly or moderately.

AADH [3] = assay: Effect of inhibitors on the enzyme activity; format: biochemical, Gluconobacter oxydans DSM No. 4025; conditions: standard DCIP/PMS assay
AADH [4] = conditions: substrate used instead of L-sorbose
Description: The enzyme assay was performed at 25° C. by measuring the decrease of absorbance at 600 nm of DCIP with a spectrophotometer (UVIKON 810, Kontron K.K.). One unit of the enzyme activity was defined as the amount of the enzyme which catalyzed the reduction of 1 μmole of DCIP per minute. The extinction coefficient of DCIP at pH 8.0 was taken as 15 mMol^-1. The standard reaction mixture (1.0 ml) contained 0.1 mMol DCIP, 1 mMol PMS, 125 mMol L-sorbose, 50 mMol Tris-malate-NaOH buffer (pH 8.0), and 3-8 μl of the enzyme solution. A reference cuvette contained all the above components except the substrate.
The substrate specificity of AADH was determined using the same enzyme assay method as described under section 1) above, except that various further substrates were used instead of L-sorbose.

Row | effect of metal ions on the AADH enzyme activity (AADH [2]) | Compound | other results
1 | – | CCCO [1-propanol] | Km (AADH [1]): 2000 µM
2 | did not affect | [Ca+2] [Ca^2+] | –
3 | strong inhibitors | [Cu+2] [Cu^2+] | –
4 | – | O=C(O)CN(CCN(CC(=O)O)CC(=O)O)CC(=O)O [EDTA, Ethylenediamine tetraacetic acid] | effect of inhibitors on the AADH enzyme activity (AADH [3]): strongly inhibited
5 | – | O=C(O)CN(CCOCCOCCN(CC(=O)O)CC(=O)O)CC(=O)O [EGTA, ethylene glycol bis(beta-aminoethylether)-N,N,N',N'-tetraacetic acid] | effect of inhibitors on the AADH enzyme activity (AADH [3]): strongly inhibited
6 | strong inhibitors | [Fe+3] [Fe^3+] | –
7 | did not affect | [Mg+2] [Mg^2+] | –
8 | strong inhibitors | [Mn+2] [Mn^2+] | –
9 | – | CCO [ethanol] | oxidation as substrate by AADH (AADH [4]): good substrate
10 | – | CO [methanol] | oxidation as substrate by AADH (AADH [4]): hardly oxidizes
